Source: PMC5555576, “Selective small-chemical inhibitors of protein arginine methyltransferase 5 with anti-lung cancer activity” (PLoS ONE, 2017)
Where “and” joins values, the source holds several entries; their conditions need not be identical. Identical values can stand only once. Like-named read-outs stand apart in the source and are kept apart here. Values belong to the compound of their own block, whether it stands above or below them.

Experiments:
[1] = system: A549 cells; assay: Cellular permeability and stability by HPLC of cell extracts; type: in vitro ADME; details: 2 hr in medium with compound
Experimental: Waters 2695 HPLC System and a C18 column (Symmetry, 3.6 x 75 mm) were used. The column was equilibrated with 10% acetonitrile and eluated with a linear gradient from 10% acetonitrile to 100% acetonitrile in 60 min. Compounds were dissolved in 10% acetonitrile and the purchased compounds (ChemBridge) were used as the standards.
We then determined whether the identified compounds are cell-permeable. Lung cancer A549 cells were cultured in medium containing various concentrations of the respective compound for 2 hr. Cells were harvested and washed with PBS. The compounds were extracted with ethyl acetate from cells and analyzed by HPLC with a C18 column using the purchased compound as the standard. Compounds C2, C5, C9 and C11 are cell-permeable (Fig 6A), which is consistent with their tPSAs <140 angstroms square (Table 1). […] We even noticed that the compound C5 crystalized inside the cells.
A, The cellular permeability of identified compounds. Lung cancer A549 cells were cultured in the presence of various concentrations of compounds for 2h and the compound concentrations in the cell were determined by HPLC chromatography with a C18 column. B, The cellular stability of identified compounds. Lung cancer A549 cells were cultured in the presence of compounds (20 μM) for 2 h and then the medium was removed. Cells were washed with the medium and cultured for additional 5 or 10 h after the compounds were removed. The compound concentrations in the cell were determined by HPLC chromatography with a C18 column. […] A549 cells were grown in the presence of DMSO or compound C5, C9 or C11 (20 μM). Histones were purified and analyzed by SDS-PAGE stained with Commassie blue (lanes 1–4, bottom) or by Western blot with anti-symmetric dimethyl arginine antibody (SYM10) (lanes 1–4, top). B-Raf was immunoprecipitated with anti-B-Raf antibody from whole cell lysates and submitted for Western blot analysis with anti-B-Raf (lanes 5 and 6, bottom) or anti-symmetric dimethyl arginine (lanes 5 and 6, top) antibody.

[2] = biological target: T1, PRMT5 (Homo sapiens, UniProt O14744); assay: Steady-state kinetic analysis of PRMT5 inhibition (time-dependent inhibition assay); type: biochemical
T1 construct: His6; made in house; host or cells: E. coli BL21(ED3) [sic]
T1 sequence (O14744 whole entry): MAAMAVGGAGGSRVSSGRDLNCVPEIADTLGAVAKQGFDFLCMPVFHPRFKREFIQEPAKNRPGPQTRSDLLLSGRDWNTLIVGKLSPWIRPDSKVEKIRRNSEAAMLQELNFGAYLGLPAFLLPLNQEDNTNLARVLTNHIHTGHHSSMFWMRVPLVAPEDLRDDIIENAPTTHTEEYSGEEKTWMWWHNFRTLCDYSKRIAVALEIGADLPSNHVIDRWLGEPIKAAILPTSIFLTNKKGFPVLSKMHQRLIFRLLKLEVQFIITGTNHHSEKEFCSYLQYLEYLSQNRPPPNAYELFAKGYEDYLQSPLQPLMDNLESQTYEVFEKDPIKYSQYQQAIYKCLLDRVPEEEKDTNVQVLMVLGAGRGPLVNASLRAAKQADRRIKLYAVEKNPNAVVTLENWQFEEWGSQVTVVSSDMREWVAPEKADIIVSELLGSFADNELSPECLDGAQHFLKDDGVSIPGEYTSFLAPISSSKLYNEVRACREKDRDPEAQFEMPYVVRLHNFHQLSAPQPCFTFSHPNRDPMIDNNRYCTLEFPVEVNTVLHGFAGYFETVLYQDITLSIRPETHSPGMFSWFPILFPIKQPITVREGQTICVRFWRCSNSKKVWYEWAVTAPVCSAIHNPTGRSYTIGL
Experimental: Different amounts of compound C2 or C5 were present in the final methylation reaction mixtures with 1.2 μg of PRMT5, 5 μM AdoMet, 2 μCi of H^3-AdoMet and various concentrations of SmD3. After a 10-, 20- or 30-min incubation at 30 °C or no incubation, the reaction mixtures were spread onto DE81 chromatography paper discs and the amounts of methylated products were quantified by liquid scintillation. Amounts (counts per minute [cpm]) of methylated products and incubation time (minutes) were plotted and reaction velocity (cpm per minute) was deduced.
To understand the mechanism of inhibition of identified compounds, we analyzed the kinetic pattern of inhibition using steady-state enzymatic measurements. The velocities of PRMT5 methylation of SmD3 were measured at several selected concentrations of compounds C2 and C5 over a range of SmD3 concentrations. Plotted in the double-reciprocal format with 1/velocity versus 1/[SmD3]
Fig 5 Steady-state kinetic analysis of PRMT5 inhibition by compounds C2 and C5. Double-reciprocal plot of reaction velocities (cpm per minute) versus concentrations of SmD3. Methylation reaction mixtures contained various concentrations of C2 (left) or C5 (right), various concentrations of SmD3, 1.2 μg of PRMT5 and 5 μM AdoMet. The mixtures were incubated for different times and the amounts of methylated products were quantified using DE81 paper and liquid scintillation. Reaction velocity was calculated as H^3 incorporation (cpm) into SmD3 per minute.

[3] = biological target: T1, PRMT5; assay: Radioactive methyltransferase assay, PRMT5; type: biochemical; details: methylation of SmD3 by PRMT5; Table 1 prints no unit, μM; read-out: IC50
Experimental: (§1) Methylation reactions were performed as previously described with a few modifications. Reaction mixtures (40 μl) containing 1.2 μg of PRMT5, 98 ng of PRMT1 or 98 ng of PRMT3; 2 μg of SmD3 or histones; 1 μCi of S-[methyl-^3H]adenosylmethionine (H^3-AdoMet; PerkinElmer); and 5 μM AdoMet were incubated in 50 mM Tris-HCl (pH 7.5)–1 mM EGTA–1 mM EDTA at 30°C for 2 h. Reaction mixtures (20 μl) were boiled in 5 μl of 5x SDS sample buffer and separated on a 15% polyacrylamide gel. Gels were fixed for 30 min in 40% methanol–10% acetic acid, incubated in 20 ml of Amplify (Amersham Life Science) for 10 min, dried and exposed to X-ray film at -80°C. IC50 was calculated by linear regression analysis of percent inhibition. The other half (20 μl) of each reaction mixture was spread onto DE81 chromatography paper discs (Whatman). The paper discs were washed 4 times with 50 mM NaHCO3 and dried. The amounts of methylated products were quantified by liquid scintillation.
In vitro methylation reactions were performed with recombinant PRMT5 (1.2 μg), PRMT1 ([…]) or PRMT3 (89 ng); [H^3]-AdoMet; and different substrates in the presence of identified compounds. […] The recombinant SmD3 (2 μg) was used as the substrate in the absence (lane 2) or presence of 1, 10 or 100 μM compounds as indicated. Reaction mixtures were separated on an SDS–15% polyacrylamide gel and the gel was dried under vacuum and exposed to film. […] Recombinant histones H4 or H2A (1 μg) were used as substrates of PRMT5 in the methylation assay in the absence or presence of 100 μM compounds as indicated. Reaction mixtures were spread onto DE81 chromatography paper discs. After a wash, the amounts of methylated products on discs were quantified by liquid scintillation. […] PRMT1 was incubated with purified histones (1 μg) or recombinant E2F1 (1 μg) as substrates in the absence (lane 2) or presence of 100 μM compounds as indicated. Reaction mixtures were separated on an SDS–15% polyacrylamide gel and the gel was dried and exposed to film.

[4] = biological target: T2, PRMT5 F225M (Homo sapiens, UniProt O14744, F327M); assay: Radioactive methyltransferase assay, mutant PRMT5; type: biochemical; details: F225M mutant PRMT5, SmD3 substrate, Fig 4D
T2 construct: His6; made in house; host or cells: bacteria (E. coli BL21(ED3) for the wild type)
T2 sequence (O14744 whole entry F327M): as the sequence (O14744 whole entry) above, with F327M counted along it
Experimental: as §1
(§2) The inhibitory activity of the compounds may stem from this interaction. To test this possibility, we conducted site-directed mutagenesis to mutate Phe225 in human PRMT5 (corresponding to Phe379 in the C. elegans PRMT5) to Met. The mutated PRMT5 was expressed in bacteria and purified by Ni-nitrilotriacetic acid (Ni-NTA) affinity chromatography (Fig 4A). The activity of the mutant PRMT5 was examined by the radioactive methyltransferase assay. […] The IC50 values for the mutant PRMT5 increased from 4.3 to 183 folds higher than those for the wild type PRMT5 (Fig 4D). […] The results also can help explain the specificity of the compounds to PRMT5. However, the contribution of this interaction to inhibition varies among the compounds. For example, compound C2 interacts with three amino acid residues (Lys451, Glu450, and Phe379) (Fig 3A) with the mutation of Phe to Met resulting in a 50-times higher IC50 (Fig 4C and 4D).
(§3) Fig 4 The conserved phenylalanine residue in PRMT5 is critical for inhibition by the five compounds. A, DS-PAGE of recombinant wild type (WT) and F225M mutant (MT) PRMT5. The gel was stained with Coomassie Brilliant Blue R250. A band corresponding to an unknown bacterial protein is indicated (star). B, The F225M mutation increased the methytransferase activity of PRMT5. In vitro methylation reactions were performed with recombinant wild type (lanes 2–4) or mutant (lanes 5–7) PRMT5 (1.2, 2.4 or 4.8 μg) and SmD3 (2 μg) as the substrate. C, The F225M mutation in PRMT5 decreased inhibition of arginine methylation by the compounds. The reaction mixture contained SmD3 (2 μg); wild type or mutant PRMT5 (1.2 μg); and 1, 10 or 100 μM compounds as indicated. D, The F225M mutation in PRMT5 […] of the compounds, as determined by quantitation and analysis of methylation assay results. TEXT PRINTED IN THE PICTURE: (D) C2: IC50 (μM) PRMT5: 0.1; IC50 (μM) PRMT5 F225M: 5.0 | (D) C5: IC50 (μM) PRMT5: 0.8; IC50 (μM) PRMT5 F225M: 3.5 | (D) C6: IC50 (μM) PRMT5: 0.5; IC50 (μM) PRMT5 F225M: 7.0 | (D) C9: IC50 (μM) PRMT5: 6.0; IC50 (μM) PRMT5 F225M: 45.0 | (D) C11: IC50 (μM) PRMT5: 0.3; IC50 (μM) PRMT5 F225M: 55.0

[5] = system: PRMT5 F225M; assay: Radioactive methyltransferase assay, mutant PRMT5; type: biochemical, human; details: Phe225 to Met
Experimental: as §1, §2, §3

[6] = system: PRMT5; details: cited from earlier work; for selectivity for PRMT5: versus PRMT1, CARM1, or PRMT7
[7] = system: PRMT5-target genes in A549 cells; assay: Real-time PCR of PRMT5-regulated genes; type: cell-based; details: 50 μM, 24 hrs
Experimental: We identified a set of genes whose expression was altered by silencing PRMT5 expression in lung cancer A549 cells. A549 cells were treated with C9a and EPZ015666 and expression of 6 identified PRMT5-regulated genes was analyzed. […] The future study would use genome-wide approach to determine genes whose expression is affected by PRMT5 inhibitors.
Supplementary file pone.0181601.s005.tif: S5 Fig PRMT5 inhibitors selectively affect PRMT5-target genes in lung cancer cells. RNAs were isolated from cells cultured in the presence of DMSO, EPZ015666 (Sigma-Aldrich) (50 μM), or C9a (50 μM) for 24 hrs and submitted to RT-RCR analysis of gene expression in cancer cell lines. Relative mRNA levels = mRNA in cells treated with PRMT5-inhibtor/mRNA in DMSo-treated cells. (TIF) Click here for additional data file.

[8] = system: MCL xenograft models; design: method as in PMID 25915199; details: cited from earlier work
[9] = system: CDK4/6 (Rb pS811) in A549 cells; assay: Western blot of Rb phosphorylation at S811; type: cell-based; details: 20 μM, 4 h
Excerpt: The retinoblastoma protein (Rb) is phosphorylated by CKDs in cells.
(TIF) Click here for additional data file.

[10] = single replicate, vs control, actin-normalised, listed as EPZ

SMILES: CCc1ccc(-c2cn3c4ccccc4nc3n2CCN2CCOCC2)cc1 [Compound C6]
cell permeability [1]: not cell-permeable
IC50 [3]: 0.5 µM
IC50 [4]: 7 µM

SMILES: CCn1c2ccccc2c2cc(CNCc3ccccn3)ccc21 [CMP5]
selectivity for PRMT5 [6]: specifically inhibited PRMT5 rather than PRMT1, CARM1, or PRMT7

SMILES: CCNC(=O)NCCSC[C@H]1O[C@@H](n2cnc3c(N)ncnc32)[C@H](O)[C@@H]1O [DS-437]
IC50 ([6]; AdoMet competitor, cofactor-binding site): 6000 nM

SMILES: O=C(NC[C@H](O)CN1CCc2ccccc2C1)c1cc(NC2COC2)ncn1 [EPZ015666, reference compound]
antitumor activity [8]: demonstrated antitumor activity in multiple MCL xenograft models

SMILES: CC(=O)c1c(C)c2cnc(Nc3ccc(N4CCNCC4)cn3)nc2n(C2CCCC2)c1=O [Palbociclib, reference compound]
Rb phosphorylation at the site S811 by CDK4/6 [9]: inhibited

SMILES: CCn1c2ccccc2c2cc(CNCc3ccccc3OC)ccc21.Cl [HLCL-61]
selectivity for PRMT5 [6]: specifically inhibited PRMT5 rather than PRMT1, CARM1, or PRMT7

The remaining lines, values ahead:

cell permeability [1]: cell-permeable
mode of inhibition with regard to SAM [2]: not competitive inhibitors
mode of inhibition with regard to the SmD3 substrate ([2]; double-reciprocal plot): competitive inhibitors
IC50 [3]: 0.1 µM
IC50 [4]: 5 µM
increase of IC50 for mutant PRMT5 over wild type PRMT5 [5]: 50 fold
SMILES: Cc1ccnc(NC(=O)c2ccc(COc3ccc(Cl)cc3)o2)c1 [Compound C2]

IC50 [3]: 0.5 µM
SMILES: COc1nc(Nc2ccc(-c3nc4ccccc4o3)cc2)nc(OC)n1 [Compound C1]

IC50 [3]: 2.5 µM
SMILES: O=C(Nc1nccs1)c1ccc(COc2ccc(F)cc2)o1 [Compound C7]

IC50 [3]: 0.6 µM
SMILES: Nc1c(C(=O)Nc2ccccc2)sc2nc3c(cc12)CCC3 [Compound C4]
